Laboratory results: US20250255868A1, “HETEROCYCLIC COMPOUND ACTING AS KRAS G12D INHIBITOR” (Hangzhou Innogate Pharma Co., Ltd., priority 2021, published 2025)
pIC50: −log10 of the molar value.

Columns and labels:
Type in all cases: cell-based
[1] = tested on: AGS (human gastric cancer cell line, KRAS G12D mutation); experiment: 3D cell proliferation inhibition (CellTiter-Glo), AGS; conditions: 168 h, 3D culture, 100 nM compound, seven days, CTG
Method: (§1) The Cell Titer-Glo (CTG) method was adopted. Compound was dissolved with DMSO to 10 mM, and then diluted by medium. The upper medium of cells was removed, washed once with DPBS, added 2 mL of trypsin, and placed at 37° C. for a while. After cells were detached from the petri dish, 5 mL fresh medium was added and the suspension cells were centrifuged at 1000 rpm for 5 minutes at room temperature. Resuspend the cells with 5 mL of fresh culture medium, and use Countess™ to count cells. 200 nL compounds were added to a ultra-low attachment 384-well plate, and 40 μL cells were added to each well. After seven days of culture at 37° C., 5% CO2, CTG was added and the signal was recorded using Envision. The Inhibition rate is calculated using the following formula: Inhibition %=(Ave_H-Sample)/(Ave_H-Ave_L)×100%. Ave_H represents the average reading value of DMSO well, Sample represents the average reading value of compound well, and Ave_L represents the average reading value of 10 μM positive control well. The log value of concentration was taken as the X-axis, and the percentage inhibition rate was taken as the Y-axis. The dose-effect curve was fitted with log(inhibitor) vs. response-Variable slope of the analysis software GraphPad Prism 5. The IC50 value or inhibitory rate of each compound on cell proliferation was obtained.

[2] = tested on: AsPC1 (human pancreatic cancer cell line, KRAS G12D mutation); experiment: 3D cell proliferation inhibition (CellTiter-Glo), AsPC1; conditions: ASPC1, 168 h, 3D culture, seven days, CTG
Method: as §1, with “Compound activity was indicated by AGS (human gastric cancer cell line, KRAS G12D mutation), GP2D (human colon cancer cell line, KRAS G12D mutation), HPAC (human pancreatic cancer cell line, KRAS G12D mutation) and AsPCl (human pancreatic cancer cell line, KRAS G12D mutation) 3D cell proliferation inhibition. The Cell” for “The Cell”

[3] = tested on: HPAC (human pancreatic cancer cell line, KRAS G12D mutation); experiment: 3D cell proliferation inhibition (CellTiter-Glo), HPAC; conditions: 168 h, 3D culture, seven days, CTG
Method: as §1, with “Compound activity was indicated by AGS (human gastric cancer cell line, KRAS G12D mutation), GP2D (human colon cancer cell line, KRAS G12D mutation), HPAC (human pancreatic cancer cell line, KRAS G12D mutation) and AsPCl (human pancreatic cancer cell line, KRAS G12D mutation) 3D cell proliferation inhibition. The Cell” for “The Cell”

[4] = tested on: GP2D (human colon cancer cell line, KRAS G12D mutation); experiment: 3D cell proliferation inhibition (CellTiter-Glo), GP2D; conditions: 168 h, 3D culture, seven days, CTG
Method: as §1, with “Compound activity was indicated by AGS (human gastric cancer cell line, KRAS G12D mutation), GP2D (human colon cancer cell line, KRAS G12D mutation), HPAC (human pancreatic cancer cell line, KRAS G12D mutation) and AsPCl (human pancreatic cancer cell line, KRAS G12D mutation) 3D cell proliferation inhibition. The Cell” for “The Cell”, “control well. […]” for “control well. The log value of concentration was taken as the X-axis, and the percentage inhibition rate was taken as the Y-axis. The dose-effect curve was fitted with log(inhibitor) vs. response-Variable slope of the analysis software GraphPad Prism 5. The IC50 value or inhibitory rate of each compound on cell proliferation was obtained.”

Question: `CCc1c(F)ccc2cccc(-c3ncc4c(N5CC6CCC(C5)N6)nc(OCC56CCCN5CC(=C(F)F)C6)nc4c3F)c12` (centres unmarked) [Compound 14] was tested. Which inhibition at 0.1 µM [1] did it give?
Answer: > 50%

Question: `C#Cc1c(F)ccc2cc(O)cc(-c3ncc4c(N5C6CCC5CNC6)nc(OC[C@@]56CCCN5C[C@H](F)C6)nc4c3F)c12` [Compound 21] was tested. Which pIC50 [2] did it give?
Answer: > 7.00

Question: With `C#Cc1c(F)ccc2cc(O)cc(-c3c(Cl)cc4c(N5CC6CCC(C5)N6)nc(OCC56CCCN5CC(=C(F)F)C6)nc4c3F)c12` (centres unmarked) [Compound 30] as the compound, how does the pIC50 [3] read?
Answer: > 7.60

Question: With `C#Cc1c(F)ccc2cc(O)cc(-c3ncc4c(N5CCNC6(CC6)C5)nc(OC[C@@]56CCCN5C[C@H](F)C6)nc4c3F)c12` [Compound 22] as the compound, how does the pIC50 [2] read?
Answer: > 6.82

Question: For `Oc1cc(-c2ncc3c(N4CC5CCC(C4)N5)nc(OCC45CCCN4CC(=C(F)F)C5)nc3c2F)c2c(F)cccc2c1` (centres unmarked) [Compound 4], which inhibition at 0.1 µM [1] is on record?
Answer: > 50%

Question: What about the pIC50 [4] of the same compound?
Answer: > 9.30

Question: What about the pIC50 [3] of the same compound?
Answer: > 7.82

Question: With `C#Cc1c(F)ccc2cc(O)cc(-c3ncc4c(N5C6CCC5CNC6)nc(OCC56CCCN5CC(=C(F)F)C6)nc4c3F)c12` (centres unmarked) [Compound 23] as the compound, how does the pIC50 [3] read?
Answer: > 7.30

Question: What does the source list for `C#Cc1cccc2cc(O)cc(-c3ncc4c(N5CC6CCC(C5)N6)nc(OCC56CCCN5CC(=C(F)F)C6)nc4c3F)c12` (centres unmarked) [Compound 10]?
Answer: inhibition at 0.1 µM [1]: > 50%; pIC50 [4]: > 9.30; pIC50 [2]: > 8.30; pIC50 [3]: > 8.00

Question: `C#Cc1c(F)ccc2cccc(-c3ncc4c(N5CC6CCC(C5)N6)nc(OCC56CCCN5CC(=C(F)F)C6)nc4c3F)c12` (centres unmarked) [Compound 12] was tested. Which inhibition at 0.1 µM [1] did it give?
Answer: > 50%

Question: What about the pIC50 [3] of the same compound?
Answer: > 7.15

Question: How did the inhibition at 0.1 µM [1] turn out when `Oc1cc(-c2ncc3c(N4CCNC5(CC5)C4)nc(OC[C@@]45CCCN4C[C@H](F)C5)nc3c2F)c2c(F)cccc2c1` [Compound 1] was run?
Answer: > 50%

Question: `C#Cc1c(F)ccc2cc(OP(=O)(O)O)cc(-c3ncc4c(N5CC6CCC(C5)N6)nc(OCC56CCCN5CC(=C(F)F)C6)nc4c3F)c12` (centres unmarked) [Compound 29] was tested. Which pIC50 [3] did it give?
Answer: > 8.00

Question: With `C#Cc1c(F)ccc2cc(O)cc(-c3ncc4c(N5CC6CCC(C5)N6)nc(OCC56CCCN5CC(=C(F)F)C6)nc4c3F)c12` (centres unmarked) [Compound 20] as the compound, how does the pIC50 [3] read?
Answer: > 8.30

Question: `C#Cc1c(F)ccc2cc(O)cc(-c3ncc4c(N5CCNC6(CC6)C5)nc(OCC56CCCN5CC(=C(F)F)C6)nc4c3F)c12` (centres unmarked) [Compound 24] was tested. Which pIC50 [3] did it give?
Answer: > 7.15

Question: For `FC(F)=C1CN2CCCC2(COc2nc(N3CC4CCC(C3)N4)c3cnc(-c4cccc5cccc(F)c45)c(F)c3n2)C1` (centres unmarked) [Compound 13], which inhibition at 0.1 µM [1] is on record?
Answer: > 50%

Question: With `C#Cc1c(F)ccc2cc(OC(C)=O)cc(-c3ncc4c(N5CC6CCC(C5)N6)nc(OCC56CCCN5CC(=C(F)F)C6)nc4c3F)c12` (centres unmarked) [Compound 28] as the compound, how does the pIC50 [3] read?
Answer: > 7.15
